From ChEMBL document CHEMBL5620409, “Discovery of tetrasubstituted thiophenes as Cisd2 activators: A potential novel therapeutic option in nonalcoholic fatty liver disease” (Eur J Med Chem, 2023)
Values belong to the molecule of their own block, whether it stands above or below them. Activity calls are given as the source filed them. The rule behind the calls is not given here.

Key:
[1] = target: T1, CDGSH iron-sulfur domain-containing protein 2 (Homo sapiens, UniProt Q8N5K1); assay: Activation of Cisd2 (unknown origin) transfected in HEK293 cells incubated for 24 hrs by one-glo luciferase assay; format: cell-based
T1 sequence (Q8N5K1 whole entry): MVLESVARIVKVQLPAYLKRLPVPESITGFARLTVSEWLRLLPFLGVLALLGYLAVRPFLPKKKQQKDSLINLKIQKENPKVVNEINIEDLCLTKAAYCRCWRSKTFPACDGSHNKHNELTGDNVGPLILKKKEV

[2] = Metabolic stability in mouse liver microsomes assessed as parent compound remaining at 5 uM in presence of NADPH-generating system measured for 30 mins by LC/MS analysis; format: ADME, Microsome; settings: read-out: Stability
[3] = Toxicity in wild type C57BL/6 mouse assessed as effect on GPT level in serum at 20 mg/kg, po administered for 2 weeks; format: organism-based; settings: in vivo, 336 h
[4] = Toxicity in wild type C57BL/6 mouse assessed as effect on body weight at 20 mg/kg, po measured for 2 weeks; format: organism-based; settings: in vivo, 336 h
[5] = Toxicity in wild type C57BL/6 mouse assessed as food intake at 20 mg/kg, po measured for 5 consecutive days; format: organism-based; settings: in vivo, 120 h, time 5 day
[6] = Toxicity in heterozygous hepatocyte-specific Cisd2 knockout C57BL/6 mouse assessed as effect on GPT level in serum at 20 mg/kg, po administered for 2 weeks; format: organism-based; settings: in vivo, 336 h
Mus musculus [7] = assay: Anti-NAFLD activity in heterozygous hepatocyte-specific Cisd2 knockout C57BL/6 mouse assessed as reduction in accumulation of fat in liver at 20 mg/kg, po measured for 2 weeks by oil red-O staining based analysis; format: functional, organism-based
Mus musculus [8] = assay: Anti-NAFLD activity in heterozygous hepatocyte-specific Cisd2 knockout C57BL/6 mouse assessed as reduction in hepatic steatosis in liver at 20 mg/kg, po measured for 2 weeks by H and E staining based analysis; format: functional, organism-based
[9] = Toxicity in wild type C57BL/6 mouse assessed as effect on ALT level in serum at 20 mg/kg, po administered for 2 weeks; format: organism-based; settings: in vivo, 336 h
[10] = Toxicity in heterozygous hepatocyte-specific Cisd2 knockout C57BL/6 mouse assessed as effect on CRE level in serum at 20 mg/kg, po administered for 2 weeks; format: organism-based; settings: in vivo, 336 h
[11] = Toxicity in wild type C57BL/6 mouse assessed as effect on GOT level in serum at 20 mg/kg, po administered for 2 weeks; format: organism-based; settings: in vivo, 336 h
[12] = Toxicity in wild type C57BL/6 mouse assessed as effect on CRE level in serum at 20 mg/kg, po administered for 2 weeks; format: organism-based; settings: in vivo, 336 h
Mus musculus [13] = assay: Anti-NAFLD activity in wild type C57BL/6 mouse assessed as fold increase in Cisd2 expression in liver at 20 mg/kg, po measured for 12 week by Western blot analysis; format: functional; settings: time 12 weeks
[14] = Toxicity in wild type C57BL/6 mouse assessed as change in liver histology at 20 mg/kg, po administered for 2 weeks; format: organism-based; settings: in vivo, 336 h
[15] = Toxicity in heterozygous hepatocyte-specific Cisd2 knockout C57BL/6 mouse assessed as effect on GOT level in serum at 20 mg/kg, po administered for 2 weeks; format: organism-based; settings: in vivo, 336 h
[16] = Toxicity in heterozygous hepatocyte-specific Cisd2 knockout C57BL/6 mouse assessed as effect on AST level in serum at 20 mg/kg, po administered for 2 weeks; format: organism-based; settings: in vivo, 336 h
[17] = Toxicity in heterozygous hepatocyte-specific Cisd2 knockout C57BL/6 mouse assessed as effect on body weight at 20 mg/kg, po measured for 2 weeks; format: organism-based; settings: in vivo, 336 h
[18] = Toxicity in wild type C57BL/6 mouse assessed as effect on AST level in serum at 20 mg/kg, po administered for 2 weeks; format: organism-based; settings: in vivo, 336 h
Mus musculus [19] = assay: Anti-NAFLD activity in heterozygous hepatocyte-specific Cisd2 knockout C57BL/6 mouse assessed as reduction in ballooning degeneration of hepatocytes at 20 mg/kg, po measured for 2 weeks by H and E staining based analysis; format: functional, organism-based
Mus musculus [20] = assay: Anti-NAFLD activity in heterozygous hepatocyte-specific Cisd2 knockout C57BL/6 mouse assessed as fold increase in Cisd2 expression in liver at 20 mg/kg, po measured for 12 week by Western blot analysis; format: functional; settings: time 12 weeks
[21] = Toxicity in heterozygous hepatocyte-specific Cisd2 knockout C57BL/6 mouse assessed as effect on ALT level in serum at 20 mg/kg, po administered for 2 weeks; format: organism-based; settings: in vivo, 336 h
[22] = Toxicity in heterozygous hepatocyte-specific Cisd2 knockout C57BL/6 mouse assessed as effect on BUN level in serum at 20 mg/kg, po administered for 2 weeks; format: organism-based; settings: in vivo, 336 h
Mus musculus [23] = assay: Anti-NAFLD activity in heterozygous hepatocyte-specific Cisd2 knockout C57BL/6 mouse assessed as effect on triglyceride level in serum at 20 mg/kg, po measured for 12 week; format: functional, organism-based; settings: time 12.0 weeks
Mus musculus [24] = assay: Anti-NAFLD activity in wild type C57BL/6 mouse assessed as effect on triglyceride level in serum at 20 mg/kg, po measured for 12 week; format: functional, organism-based; settings: time 12.0 weeks
Mus musculus [25] = assay: Anti-NAFLD activity in heterozygous hepatocyte-specific Cisd2 knockout C57BL/6 mouse assessed as abnormal hepatic lipid accumulation in liver at 20 mg/kg, po measured for 2 weeks; format: functional, organism-based
[26] = Toxicity in wild type C57BL/6 mouse assessed as effect on BUN level in serum at 20 mg/kg, po administered for 2 weeks; format: organism-based; settings: in vivo, 336 h

Structure (SMILES): Cc1ccc(NC(=O)c2sc(N)c(C(=O)OC(C)C)c2C)c(C)c1
EC50 [1]: 1520 nM

Structure (SMILES): Cc1ccc(NC(=O)c2sc(N)c(C(=O)NCC#N)c2C)c(C)c1
EC50 [1]: 1590 nM

Structure (SMILES): Cc1ccc(NC(=O)c2sc(N)c(C(=O)O)c2C)c(C)c1
EC50 [1]: 296 nM

Structure (SMILES): CNc1sc(C(=O)Nc2ccc(C)cc2C)c(C)c1C(=O)OC
EC50 [1]: > 10000 nM

Structure (SMILES): COC(=O)c1c(N)sc(C(=O)Nc2cc(OC)c(OC)c(OC)c2)c1C
EC50 [1]: 2180 nM

Structure (SMILES): COC(=O)c1cc(C(=O)Nc2ccc(C)cc2C)sc1N
EC50 [1]: 2080 nM

Structure (SMILES): CC(=O)c1c(N)sc(C(=O)Nc2ccccc2)c1C
EC50 [1]: 553 nM

Structure (SMILES): Cc1ccc(NC(=O)c2sc(N)c(C#N)c2C)c(C)c1
EC50 [1]: 2670 nM

Structure (SMILES): Cc1ccc(NC(=O)c2sc(N)c(C(N)=O)c2C)c(C)c1
EC50 [1]: 979 nM

Structure (SMILES): Cc1ccc(NC(=O)c2sc(N)c(C(=O)OC(C)(C)C)c2C)c(C)c1
EC50 [1]: 1340 nM

Structure (SMILES): COC(=O)c1c(N)sc(C(=O)Nc2nccs2)c1C
remaining at 0.5 h, 5 µM [2]: 44.5%
EC50 [1]: 153 nM

Structure (SMILES): CCOC(=O)c1c(N)sc(C(=O)Nc2ccc(C)cc2C)c1C
remaining at 0.5 h, 5 µM [2]: 60.6%
EC50 [1]: 197 nM

Structure (SMILES): COC(=O)c1c(N)sc(C(=O)Nc2cccnc2)c1C
EC50 [1]: 661 nM

Structure (SMILES): Cc1ccc(NC(=O)c2sc(N)c(C(=O)OCc3ccccc3)c2C)c(C)c1
EC50 [1]: > 10000 nM

Structure (SMILES): COC(=O)c1c(N)sc(C(=O)Nc2nc3ccccc3s2)c1C
EC50 [1]: > 10000 nM

Structure (SMILES): CC(=O)c1c(N)sc(C(=O)Nc2ccc(C)cc2C)c1C
remaining at 0.5 h, 5 µM [2]: 0%
EC50 [1]: 164 nM

Structure (SMILES): COC(=O)c1c(N)sc(C(=O)Nc2ccc(C)cc2C)c1C
remaining at 0.5 h, 5 µM [2]: 27.6%
EC50 [1]: 46 nM

Structure (SMILES): COC(=O)c1c(NC(C)=O)sc(C(=O)Nc2ccc(C)cc2C)c1C
EC50 [1]: 4440 nM

Structure (SMILES): COC(=O)c1sccc1NC(=O)c1sc(N)c(C(=O)OC)c1C
EC50 [1]: > 10000 nM

Structure (SMILES): COC(=O)c1c(N)sc(C(=O)Nc2c(C)cc(C)cc2C)c1C
EC50 [1]: 1700 nM

Structure (SMILES): COC(=O)c1c(N)sc(C(=O)Nc2ccccc2OC)c1C
EC50 [1]: 3070 nM

Structure (SMILES): Cc1ccc(NC(=O)c2sc(N)c(C(=O)CO)c2C)c(C)c1
EC50 [1]: 809 nM

More lines, main results first:

remaining at 0.5 h, 5 µM [2]: 54.7%
EC50 [1]: 35 nM
Structure (SMILES): COC(=O)c1c(N)sc(C(=O)Nc2ccc(N(C)C)cc2)c1C

remaining at 0.5 h, 5 µM [2]: 49.2%
EC50 [1]: 160 nM
Structure (SMILES): CC(=O)c1c(N)sc(C(=O)Nc2ccc(F)cc2)c1C

remaining at 0.5 h, 5 µM [2]: 73.6%
EC50 [1]: 12 nM
Structure (SMILES): COC(=O)c1c(N)sc(C(=O)Nc2ccc(OC)cc2)c1C

remaining at 0.5 h, 5 µM [2]: 53.3%
EC50 [1]: 233 nM
Structure (SMILES): COC(=O)c1c(N)sc(C(=O)Nc2ccccc2C)c1C

remaining at 0.5 h, 5 µM [2]: 63.5%
EC50 [1]: 95 nM
Structure (SMILES): COC(=O)c1c(N)sc(C(=O)Nc2ccccc2)c1C

remaining at 0.5 h, 5 µM [2]: 83.7%
EC50 [1]: 82 nM
Structure (SMILES): COC(=O)c1c(N)sc(C(=O)Nc2ccc(C#N)cc2)c1C

remaining at 0.5 h, 5 µM [2]: 91.8%
EC50 [1]: 191 nM
Structure (SMILES): COC(=O)c1c(N)sc(C(=O)Nc2ccc(O)cc2)c1C
Activity [3]: Non-Toxic
Activity [4]: Non-Toxic
Activity [5]: Non-Toxic
Activity [6]: Non-Toxic
Activity (Mus musculus [7]): Active
Activity (Mus musculus [8]): Active
Activity [9]: Non-Toxic
Activity [10]: Non-Toxic
Activity [11]: Non-Toxic
Activity [12]: Non-Toxic
fold change (FC) (Mus musculus [13]): 1.3
Activity [14]: Non-Toxic
Activity [15]: Non-Toxic
Activity [16]: Non-Toxic
Activity [17]: Non-Toxic
Activity [18]: Non-Toxic
Activity (Mus musculus [19]): Active
fold change (FC) (Mus musculus [20]): 2
Activity [21]: Non-Toxic
Activity [22]: Non-Toxic
Activity (Mus musculus [23]): Active
Activity (Mus musculus [24]): Active
Activity (Mus musculus [25]): Active
Activity [26]: Non-Toxic

remaining at 0.5 h, 5 µM [2]: 73.2%
EC50 [1]: 10 nM
Structure (SMILES): COC(=O)c1c(N)sc(C(=O)Nc2ccc(C)cc2)c1C

remaining at 0.5 h, 5 µM [2]: 53.8%
EC50 [1]: 35 nM
Structure (SMILES): COC(=O)c1c(N)sc(C(=O)Nc2cccc(C)c2)c1C

remaining at 0.5 h, 5 µM [2]: 84.9%
EC50 [1]: 34 nM
Structure (SMILES): COC(=O)c1c(N)sc(C(=O)Nc2ccc(F)cc2)c1C
Activity [3]: Non-Toxic
Activity [4]: Non-Toxic
Activity [5]: Non-Toxic
Activity [6]: Non-Toxic
Activity (Mus musculus [7]): Active
Activity (Mus musculus [8]): Active
Activity [9]: Non-Toxic
Activity [10]: Non-Toxic
Activity [11]: Non-Toxic
Activity [12]: Non-Toxic
fold change (FC) (Mus musculus [13]): 1.3
Activity [14]: Non-Toxic
Activity [15]: Non-Toxic
Activity [16]: Non-Toxic
Activity [17]: Non-Toxic
Activity [18]: Non-Toxic
Activity (Mus musculus [19]): Active
fold change (FC) (Mus musculus [20]): 2
Activity [21]: Non-Toxic
Activity [22]: Non-Toxic
Activity (Mus musculus [23]): Active
Activity (Mus musculus [24]): Active
Activity (Mus musculus [25]): Active
Activity [26]: Non-Toxic

remaining at 0.5 h, 5 µM [2]: 59.2%
EC50 [1]: 23 nM
Structure (SMILES): COC(=O)c1c(N)sc(C(=O)Nc2cccc(OC)c2)c1C

EC50 [1]: 252 nM
Structure (SMILES): COC(=O)c1c(N)sc(C(=O)Nc2ccc(C(F)(F)F)cc2)c1C
